Results published in patent publication US20260297035A1, “PROTEIN KINASE INHIBITORS AND USES THEREOF” (DELiver Therapeutics, Inc., priority 2023, published 2026).
Read-outs that look alike come from different tables or passages of the source.

Columns and labels:
ABL1(wt) = ABL1(wt) (Homo sapiens, UniProt P00519); assay: Z′-LYTE assay (labeled peptide cleavage), ABL1(wt); type: biochemical
From the text: This Example describes a cell-free assay utilized to identify candidate compounds that bind to and inhibit protein kinase (PK) and PK variants. One assay is referred to as a “Z′-LYTE assay” and is an example of a labeled peptide cleavage assay. The fluorescence-based assay relies on the differential sensitivity of a small, dual-end-labelled peptide to cleavage by a protease, dependent on the phosphorylation state of the peptide (FIG. 1). The peptide substrate is end-labelled with two distinct fluorophores that comprise a Fluorescence Resonance Energy Transfer (FRET) pair.
In the absence of inhibitor, the kinase transfers the gamma-phosphate from ATP to the single, unique tyrosine, serine or threonine in the synthetic FRET peptide. The reaction conditions are titrated such that 10-40% of the peptide substrate is phosphorylated. In a second reaction, a site-specific protease that only recognizes and cleaves the non-phosphorylated FRET peptide is added. Cleavage interferes with FRET between the donor (i.e., coumarin) and the acceptor (i.e., fluorescein) fluorophores on the FRET-peptide substrate, unlike the phosphorylated, uncleaved peptide.
The Test Compounds are screened in 1% DMSO (final) in the well.
All Peptide/Kinase Mixtures are diluted to a 2× working concentration in the appropriate Kinase Buffer. The 2×ABL1 polypeptide/Tyr 02 substrate peptide mixture is prepared in 50 mM HEPES pH 7.5, 0.01% BRIJ-35, 10 mM MgCl2, 1 mM EGTA. The final 10 μL Kinase Reaction contains 0.3-1.2 ng ABL1 (or 1.36-6 ng ABL1(T315I)) and 2 μM Tyr 02 in 50 mM HEPES, pH 7.5, 0.01% BRIJ-35, 10 mM MgCl2, 1 mM EGTA. After the 1-hour Kinase Reaction incubation, 5 μL of a 1:128 dilution of Development Reagent A is added. The ABL1(wt) polypeptide utilized for the assay described in this Example was the “isoahABL1(wt)” polypeptide described herein (SEQ ID NO:4), which is referred to as “ABL1” in Table 1 and “ABL1(wt)” or “WT” in Table 3 of this Example. The ABL1 variant polypeptides utilized contained the same polypeptide as the “isoahABL1(wt)” polypeptide except that each contained one corresponding amino acid substitution chosen from E255K, F317I, F317L, G250E, T315I or Y253F. […]
All ATP Solutions are diluted to a 4× working concentration in Kinase Buffer (50 mM HEPES, pH 7.5, 0.01% BRIJ-35, 10 mM MgCl2, 1 mM EGTA). The ATP Km apparent (Km app) is previously determined using a Z′-LYTE assay.
Bar-coded Corning, low volume NBS, black 384-well plate (Corning Cat. #4514) • 1. […] Read on fluorescence plate reader and analyze the data
A known inhibitor control standard curve, 10-point titration, is run for each individual kinase on the same plate as the kinase to ensure the kinase is inhibited within an expected IC50 range previously determined. […]

[1] = non-GLP multi-dose toxicity study (dose escalation, daily IP injection); type: in vivo, mouse (6-week-old Balb/c females); details: mice
Procedure: An initial non-GLP multi-dose toxicity study of Cmpd11 and Cmpd66 was performed, which included a comparison to COM1 and COM3 clinical compounds. […] Body weights were recorded 2× weekly for healthy mice followed by weekly in the recovery phase. Blood draws were taken, retro-orbitally, every other week (for a total of three blood draws per group) to determine the plasma levels of compounds throughout the duration of the study (unless mice were euthanized prior to completion of the 28-day dosing period). […] Any animals showing more than 9% weight loss were weighed every day and animals were euthanized after a weight loss of 15% or more or evidence of high distress (e.g., listless, hunched posture, high grimace score). Also, plasma samples were drawn at euthanasia. Control groups included vehicle only and no manipulation.
A summary of the study is illustrated in FIG. 14. There are six groups with 90 mice total and following is an overview of groups for the study.
The following are criteria for dose escalation and staggering of group starting points. Animals in each group are monitored after the initial dose for 3-4 days, and if there is no observed dose-limiting toxicity (DLT), then a separate cohort of naïve animals are administered the next higher dose level. Note that each cohort of animals receives the same drug and drug dose for the duration of the 28-day dosing period unless euthanasia is required. Animals in the second, dose-escalated group, are then monitored for 3-4 days, and if there is no observed DLT, animals from a fresh cohort are administered the next higher dose level, while continuing with the former cohorts up to 5 dose levels total. Animals in each cohort then are monitored after the third dose for 7 days, and if there is no observed DLT, then animals are administered the next higher doses. If DLT is observed during a monitoring period for any dose level, a subsequent dose is reduced by a level that is intermediate between the highest tolerated level tested and the minimum toxic level tested.

Chain of ABL1(wt) (P00519 with tags, fused parts or gaps): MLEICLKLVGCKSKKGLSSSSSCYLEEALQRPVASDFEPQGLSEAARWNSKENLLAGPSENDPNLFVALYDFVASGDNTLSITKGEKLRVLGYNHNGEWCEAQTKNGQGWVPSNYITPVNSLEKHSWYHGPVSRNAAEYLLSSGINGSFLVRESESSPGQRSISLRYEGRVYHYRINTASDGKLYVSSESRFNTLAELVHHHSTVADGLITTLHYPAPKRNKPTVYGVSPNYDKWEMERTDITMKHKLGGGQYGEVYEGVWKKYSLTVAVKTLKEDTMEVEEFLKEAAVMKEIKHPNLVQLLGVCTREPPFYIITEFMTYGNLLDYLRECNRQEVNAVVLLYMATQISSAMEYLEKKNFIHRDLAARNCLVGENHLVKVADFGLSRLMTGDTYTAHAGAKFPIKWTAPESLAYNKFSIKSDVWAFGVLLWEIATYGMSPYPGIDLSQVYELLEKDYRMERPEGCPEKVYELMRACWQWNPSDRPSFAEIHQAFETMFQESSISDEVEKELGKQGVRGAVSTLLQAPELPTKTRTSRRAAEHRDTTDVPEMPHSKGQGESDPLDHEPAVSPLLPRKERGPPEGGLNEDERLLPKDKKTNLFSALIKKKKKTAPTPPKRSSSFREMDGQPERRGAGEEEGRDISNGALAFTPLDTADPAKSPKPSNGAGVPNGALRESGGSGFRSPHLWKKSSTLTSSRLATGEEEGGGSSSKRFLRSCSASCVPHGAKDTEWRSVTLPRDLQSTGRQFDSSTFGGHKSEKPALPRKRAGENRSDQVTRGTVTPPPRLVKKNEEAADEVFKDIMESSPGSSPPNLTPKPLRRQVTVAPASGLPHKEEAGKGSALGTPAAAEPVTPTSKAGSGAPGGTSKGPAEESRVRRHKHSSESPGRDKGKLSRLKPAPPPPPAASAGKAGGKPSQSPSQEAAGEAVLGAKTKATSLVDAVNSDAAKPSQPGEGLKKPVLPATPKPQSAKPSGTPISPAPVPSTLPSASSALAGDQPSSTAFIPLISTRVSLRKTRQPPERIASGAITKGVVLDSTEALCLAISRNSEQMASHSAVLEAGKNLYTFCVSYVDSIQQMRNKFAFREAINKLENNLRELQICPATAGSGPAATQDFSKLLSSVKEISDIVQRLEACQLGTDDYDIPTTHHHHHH

Cc1ccc(Nc2ncc3cccc(-c4ccc(F)cc4OC(C)C)c3n2)cc1NC(=O)c1ccc(C(=O)N(C)C)cc1 [Cmpd11, N1-(5-((8-(4-fluoro-2-isopropoxyphenyl)quinazolin-2-yl)amino)-2-methylphenyl)-N4,N4-dimethylterephthalamide]
IC50 (ABL1(wt); class by IC50 values in Table 5, read-out: inhibitor class of ABL1(wt) according to IC50): < 20 nM
IC50 (ABL1(wt); test compounds, Z′-LYTE, read-out: IC50 values for test compounds, ABL1(wt)): 2.93 nM
tolerability relative to COM1 ([1]; at doses required to reach the in vitro K562-Luc EC50 plasma levels in vivo, early results): more tolerable than COM1
tolerability ([1]; daily IP, 1.5 mg/kg, through day 24): well tolerated
tolerability ([1]; daily IP, 4.5 mg/kg, through day 14): well tolerated
mortality at 168 h ([1]; mouse, in vivo, daily IP, 18 mg/kg (12X EC50), by day 7, read-out: expiration of animals (2 out of 5)): 40%
